Reference: patent EP3875080B1, “DOSAGE FORM PROVIDING PROLONGED RELEASE OF […] SALT” (priority 2020, dated 2021)
Counter-ions that a name gives are not always drawn. Like-named read-outs stand apart in the source and are kept apart here.

Experiments:
[1] = in vivo, cited from earlier work
[2] = intrinsic dissolution (dissolution rate), Wood's apparatus; assay type: physicochemical
Experimental: 100 mg of Tapentadol, either in form of the hydrochloride salt or the dihydrogenphosphate salt (mixed form [batch with fine particles], pure hemihydrate or pure anhydrate) were compressed at a compressing force of 200 kg (gravitational) for 1 minute at a surface of 0.5 cm^2. The thus obtained compressed samples were investigated for their dissolution rate in a Wood's apparatus at 37 °C in 900 mL of dissolution medium at different pH values and a rotational speed of the paddle of 50 rpm.

[3] = thermodynamic solubility (saturation solubility); assay type: physicochemical; conditions: for solubility thermodynamic at 24 h: thermodynamic from solid, read-out: thermodynamic solubility, assay expressed as base
Experimental: The thermodynamic solubility of Tapentadol hydrochloride and of Tapentadol dihydrogen-phosphate (mixed form, batch with fine particles) was determined as saturation solubility in various media at various pH values. The solutions were stirred for 24 hours at 25 °C and the pH values of the solutions at the start and at the end of the experiments were measured. The dissolved amount of Tapentadol was quantified by HPLC (free base of Tapentadol).

[4] = in vitro dissolution of Tapentadol from tablets, paddle apparatus Ph. Eur.; assay type: physicochemical; conditions: for ethanol induced dose dumping: 0.1 N HCl (pH 1.0) containing 40 vol.-% ethanol compared to pH 1.0
Experimental: The in vitro dissolution of Tapentadol from the tablets (drug load 250 mg, C-1, I-1 and I-3) was measured in a paddle apparatus in accordance with Ph. Eur., equipped with sinker, at a rotational speed of 50 rpm at 37 °C in 900 ml of different dissolution media having different pH values. The experimental results are compiled in the table here below:
The in vitro dissolution of Tapentadol from the tablets (drug load 250 mg, I-4) was measured in a paddle apparatus in accordance with Ph. Eur., equipped with sinker, at a rotational speed of 50 rpm at 37 °C in 900 ml of 0.1 N HCl without ethanol (pH 1.0) and in 0.1 N HCl with 40 vol.-% ethanol (pH 1.0).

Molecule: COc1ccc2c3c1O[C@H]1C(=O)CC[C@H]4[C@@H](C2)N(C)CC[C@]314 [Hydrocodone]
- Maximum individual Cmax ratio with 40% alcohol [1]: 3.9
- mean increase in Cmax ratio relative to drug co-ingested with 0% alcohol [1]: 2.3

Molecule: CN1CC[C@]23c4c5ccc(O)c4O[C@H]2C(=O)CC[C@@]3(O)[C@H]1C5 [Oxymorphone]
- Maximum individual Cmax ratio with 40% alcohol [1]: 2.70
- mean increase in Cmax ratio relative to drug co-ingested with 0% alcohol [1]: 1.70

Molecule: CC[C@@H](c1cccc(O)c1)[C@@H](C)CN(C)C.O=P(O)(O)O [Tapentadol dihydrogenphosphate anhydrate]
- intrinsic dissolution (dissolution rate) ([2]; pH 1.2, 0 min): 0%
- intrinsic dissolution (dissolution rate) ([2]; pH 1.2, 1 min): 15%
- intrinsic dissolution (dissolution rate) ([2]; pH 1.2, 3 min): 37%
- intrinsic dissolution (dissolution rate) ([2]; pH 1.2, 5 min): 57%
- intrinsic dissolution (dissolution rate) ([2]; pH 1.2, 7 min): 75%
- intrinsic dissolution (dissolution rate) ([2]; pH 1.2, 9 min): 85%
- intrinsic dissolution (dissolution rate) ([2]; pH 6.8, 0 min): 0%
- intrinsic dissolution (dissolution rate) ([2]; pH 6.8, 1 min): 13%
- intrinsic dissolution (dissolution rate) ([2]; pH 6.8, 3 min): 36%
- intrinsic dissolution (dissolution rate) ([2]; pH 6.8, 5 min): 66%
- intrinsic dissolution (dissolution rate) ([2]; pH 6.8, 7 min): 90%
- intrinsic dissolution (dissolution rate) ([2]; pH 6.8, 9 min): 96%

Molecule: CC[C@@H](c1cccc(O)c1)[C@@H](C)CN(C)C.CC[C@@H](c1cccc(O)c1)[C@@H](C)CN(C)C.O.O=P(O)(O)O.O=P(O)(O)O [Tapentadol dihydrogenphosphate hemihydrate]
- intrinsic dissolution (dissolution rate) ([2]; pH 1.2, 0 min): 0%
- intrinsic dissolution (dissolution rate) ([2]; pH 1.2, 1 min): 14%
- intrinsic dissolution (dissolution rate) ([2]; pH 1.2, 3 min): 37%
- intrinsic dissolution (dissolution rate) ([2]; pH 1.2, 5 min): 54%
- intrinsic dissolution (dissolution rate) ([2]; pH 1.2, 7 min): 72%
- intrinsic dissolution (dissolution rate) ([2]; pH 1.2, 9 min): 84%
- intrinsic dissolution (dissolution rate) ([2]; pH 6.8, 0 min): 0%
- intrinsic dissolution (dissolution rate) ([2]; pH 6.8, 1 min): 12%
- intrinsic dissolution (dissolution rate) ([2]; pH 6.8, 3 min): 36%
- intrinsic dissolution (dissolution rate) ([2]; pH 6.8, 5 min): 66%
- intrinsic dissolution (dissolution rate) ([2]; pH 6.8, 7 min): 80%
- intrinsic dissolution (dissolution rate) ([2]; pH 6.8, 9 min): 83%

Molecule: CC[C@@H](c1cccc(O)c1)[C@@H](C)CN(C)C [Tapentadol hydrochloride, reference compound]
- pH end ([3]; 0.1 M HCl, pH start 1.11): 0.83
- pH end ([3]; 0.15N NaOH, pH start 13.08): 8.21
- pH end ([3]; SIF sp pH 6.8, pH start 6.82): 6.23
- pH end ([3]; acetate pH 4.5, pH start 4.54): 4.29
- pH end ([3]; citrate pH 6.8, pH start 6.83): 6.17
- pH end ([3]; citrate pH 7.4, pH start 7.39): 6.33
- solubility thermodynamic at 24 h ([3]; pH 1.11, aqueous buffer, 0.1 M HCl, pH start 1.11, 24 hours at 25 °C): 312 mg/mL
- solubility thermodynamic at 24 h ([3]; pH 13.08, aqueous buffer, 0.15N NaOH, pH start 13.08, 24 hours at 25 °C): 66 mg/mL
- pH end ([3]; water): 4.63
- intrinsic dissolution (dissolution rate) ([2]; pH 1.0, 0 min): 0%
- intrinsic dissolution (dissolution rate) ([2]; pH 1.0, 1 min): 52%
- intrinsic dissolution (dissolution rate) ([2]; pH 1.0, 3 min): 95%
- intrinsic dissolution (dissolution rate) ([2]; pH 1.0, 5 min): 99%
- intrinsic dissolution (dissolution rate) ([2]; pH 1.0, 7 min): 99%
- intrinsic dissolution (dissolution rate) ([2]; pH 1.0, 9 min): 99%
- intrinsic dissolution (dissolution rate) ([2]; pH 4.5, 0 min): 0%
- intrinsic dissolution (dissolution rate) ([2]; pH 4.5, 1 min): 60%
- intrinsic dissolution (dissolution rate) ([2]; pH 4.5, 3 min): 91%
- intrinsic dissolution (dissolution rate) ([2]; pH 4.5, 5 min): 95%
- intrinsic dissolution (dissolution rate) ([2]; pH 4.5, 7 min): 95%
- intrinsic dissolution (dissolution rate) ([2]; pH 4.5, 9 min): 96%
- intrinsic dissolution (dissolution rate) ([2]; pH 6.8, 0 min): 0%
- intrinsic dissolution (dissolution rate) ([2]; pH 6.8, 1 min): 38%
- intrinsic dissolution (dissolution rate) ([2]; pH 6.8, 3 min): 79%
- intrinsic dissolution (dissolution rate) ([2]; pH 6.8, 5 min): 92%
- intrinsic dissolution (dissolution rate) ([2]; pH 6.8, 7 min): 94%
- intrinsic dissolution (dissolution rate) ([2]; pH 6.8, 9 min): 94%
- intrinsic dissolution (dissolution rate) ([2]; pH 7.4, 0 min): 0%
- intrinsic dissolution (dissolution rate) ([2]; pH 7.4, 1 min): 27%
- intrinsic dissolution (dissolution rate) ([2]; pH 7.4, 3 min): 65%
- intrinsic dissolution (dissolution rate) ([2]; pH 7.4, 5 min): 80%
- intrinsic dissolution (dissolution rate) ([2]; pH 7.4, 7 min): 89%
- intrinsic dissolution (dissolution rate) ([2]; pH 7.4, 9 min): 92%
- ethanol induced dose dumping [4]: no ethanol induced dose dumping

Molecule: CC[C@@H](c1cccc(O)c1)[C@@H](C)CN(C)C [Tapentadol, (-)-(1R,2R)-3-(3-dimethylamino-1-ethyl-2-methyl-propyl)-phenol]
- Maximum individual Cmax ratio with 40% alcohol ([1]; 100 mg): 4.38
- mean increase in Cmax ratio relative to drug co-ingested with 0% alcohol ([1]; 100 mg): 1.48
- Maximum individual Cmax ratio with 40% alcohol ([1]; 250 mg): 2.67
- mean increase in Cmax ratio relative to drug co-ingested with 0% alcohol ([1]; 250 mg): 1.28

Molecule: Tapentadol dihydrogenphosphate
- pH end ([3]; 0.1 M HCl, pH start 1.11): 2.55
- thermodynamic solubility, assay expressed as base ([3]; 0.1 M HCl, pH start 1.11, 24 hours at 25 °C): 24.3 g/100 mL
- pH end ([3]; 0.15N NaOH, pH start 13.08): 8.09
- thermodynamic solubility, assay expressed as base ([3]; 0.15N NaOH, pH start 13.08, 24 hours at 25 °C): 6.5 g/100 mL
- pH end ([3]; SIF sp pH 6.8, pH start 6.82): 2.81
- thermodynamic solubility, assay expressed as base ([3]; SIF sp pH 6.8, pH start 6.82, 24 hours at 25 °C): 20.2 g/100 mL
- pH end ([3]; acetate pH 4.5, pH start 4.54): 2.81
- thermodynamic solubility, assay expressed as base ([3]; acetate pH 4.5, pH start 4.54, 24 hours at 25 °C): 21.2 g/100 mL
- pH end ([3]; citrate pH 6.8, pH start 6.83): 3.15
- thermodynamic solubility, assay expressed as base ([3]; citrate pH 6.8, pH start 6.83, 24 hours at 25 °C): 19.3 g/100 mL
- pH end ([3]; citrate pH 7.4, pH start 7.39): 3.16
- thermodynamic solubility, assay expressed as base ([3]; citrate pH 7.4, pH start 7.39, 24 hours at 25 °C): 19.0 g/100 mL
- thermodynamic solubility compared with Tapentadol hydrochloride ([3]; under all tested conditions): below that of Tapentadol hydrochloride
- pH end ([3]; water): 2.75
- thermodynamic solubility, assay expressed as base ([3]; water, 24 hours at 25 °C): 21.4 g/100 mL
- dissolution rate compared with Tapentadol hydrochloride ([2]; at all tested pH values): significantly slower dissolution rate
- intrinsic dissolution (dissolution rate) ([2]; pH 1.0, 0 min): 0%
- intrinsic dissolution (dissolution rate) ([2]; pH 1.0, 1 min): 14%
- intrinsic dissolution (dissolution rate) ([2]; pH 1.0, 3 min): 35%
- intrinsic dissolution (dissolution rate) ([2]; pH 1.0, 5 min): 56%
- intrinsic dissolution (dissolution rate) ([2]; pH 1.0, 7 min): 78%
- intrinsic dissolution (dissolution rate) ([2]; pH 1.0, 9 min): 84%
- intrinsic dissolution (dissolution rate) ([2]; pH 4.5, 0 min): 0%
- intrinsic dissolution (dissolution rate) ([2]; pH 4.5, 1 min): 12%
- intrinsic dissolution (dissolution rate) ([2]; pH 4.5, 3 min): 30%
- intrinsic dissolution (dissolution rate) ([2]; pH 4.5, 5 min): 49%
- intrinsic dissolution (dissolution rate) ([2]; pH 4.5, 7 min): 73%
- intrinsic dissolution (dissolution rate) ([2]; pH 4.5, 9 min): 86%
- intrinsic dissolution (dissolution rate) ([2]; pH 6.8, 0 min): 0%
- intrinsic dissolution (dissolution rate) ([2]; pH 6.8, 1 min): 11%
- intrinsic dissolution (dissolution rate) ([2]; pH 6.8, 3 min): 29%
- intrinsic dissolution (dissolution rate) ([2]; pH 6.8, 5 min): 48%
- intrinsic dissolution (dissolution rate) ([2]; pH 6.8, 7 min): 66%
- intrinsic dissolution (dissolution rate) ([2]; pH 6.8, 9 min): 77%
- intrinsic dissolution (dissolution rate) ([2]; pH 7.4, 0 min): 0%
- intrinsic dissolution (dissolution rate) ([2]; pH 7.4, 1 min): 12%
- intrinsic dissolution (dissolution rate) ([2]; pH 7.4, 3 min): 30%
- intrinsic dissolution (dissolution rate) ([2]; pH 7.4, 5 min): 46%
- intrinsic dissolution (dissolution rate) ([2]; pH 7.4, 7 min): 63%
- intrinsic dissolution (dissolution rate) ([2]; pH 7.4, 9 min): 78%
- ethanol induced dose dumping [4]: no ethanol induced dose dumping
- additional retardant effect in aqueous ethanol compared to Tapentadol hydrochloride ([4]; 0.1 N HCl (pH 1.0) containing 40 vol.-% ethanol, same excipients in same amounts): significantly stronger
- time difference to a release of 70% compared to Tapentadol hydrochloride ([4]; pH 4.5, aqueous buffer without ethanol): more than one
